In the supplement of paper PMC10307832:

Experiments:
Test in all cases: relative viability (nuclei count vs DMSO), 5 days (fraction); higher = more cells survive
RU-SKI 43 + AZD7762 = compound: CC[C@@H](C)CNCC(=O)N1CCC2=C([C@@H]1COC3=CC=CC(=C3)C)C=CS2 [RU-SKI 43] + NC(=O)Nc1cc(-c2cccc(F)c2)sc1C(=O)N[C@H]1CCCNC1 [AZD7762] (partner 0.2 µM)
Method in brief: (§1)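 Lung cancer cell lines in 1536-well plates got either a single drug or a fixed anchor-drug dose together with five library-drug doses (not always all listed) in √10 steps, by pin tool, on the day after seeding. Nuclei were counted after 5 days, and relative viability is the treated-to-vehicle ratio of nuclei counts. Values are medians of duplicate plates.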

Irinotecan + AZD7762 = compound: CCc1c2c(nc3ccc(OC(=O)N4CCC(N5CCCCC5)CC4)cc13)-c1cc3c(c(=O)n1C2)COC(=O)[C@]3(O)CC [Irinotecan] + NC(=O)Nc1cc(-c2cccc(F)c2)sc1C(=O)N[C@H]1CCCNC1 [AZD7762] (partner 0.2 µM)
Method in brief: as §1

RU-SKI 43 + Dasatinib = compound: CC[C@@H](C)CNCC(=O)N1CCC2=C([C@@H]1COC3=CC=CC(=C3)C)C=CS2 [RU-SKI 43] + Cc1nc(Nc2ncc(C(=O)Nc3c(C)cccc3Cl)s2)cc(N2CCN(CCO)CC2)n1 [Dasatinib] (partner 0.075 µM)
Method in brief: as §1

MK-8033 + Olaparib = compound: Cn1cc(-c2cnc3ccc4ccc(CS(=O)(=O)NCc5ccccn5)cc4c(=O)c3c2)cn1 [MK-8033] + O=C(c1cc(Cc2n[nH]c(=O)c3ccccc23)ccc1F)N1CCN(C(=O)C2CC2)CC1 [Olaparib] (partner 8 µM)
Method in brief: as §1

Cell Line | relative viability (RU-SKI 43 + AZD7762; first compound 0.1 µM) | relative viability (RU-SKI 43 + AZD7762; first compound 0.3162 µM) | relative viability (RU-SKI 43 + AZD7762; first compound 1 µM) | relative viability (RU-SKI 43 + AZD7762; first compound 3.162 µM) | relative viability (RU-SKI 43 + AZD7762; first compound 10 µM) | relative viability (Irinotecan + AZD7762; first compound 0.6325 µM) | relative viability (Irinotecan + AZD7762; first compound 2 µM) | relative viability (Irinotecan + AZD7762; first compound 6.325 µM) | relative viability (Irinotecan + AZD7762; first compound 20 µM) | relative viability (RU-SKI 43 + Dasatinib; first compound 0.1 µM) | relative viability (RU-SKI 43 + Dasatinib; first compound 0.3162 µM) | relative viability (RU-SKI 43 + Dasatinib; first compound 1 µM) | relative viability (RU-SKI 43 + Dasatinib; first compound 3.162 µM) | relative viability (RU-SKI 43 + Dasatinib; first compound 10 µM) | relative viability (MK-8033 + Olaparib; first compound 0.02 µM) | relative viability (MK-8033 + Olaparib; first compound 0.06325 µM) | relative viability (MK-8033 + Olaparib; first compound 0.2 µM) | relative viability (MK-8033 + Olaparib; first compound 0.6325 µM) | relative viability (MK-8033 + Olaparib; first compound 2 µM)
RERF-LC-KJ | 0.97 | 1.01 | 1.21 | 1.17 | 1.04 | 0.55 | 1.03 | 0.568 | 0.277 | 0.788 | 0.938 | 0.992 | 0.771 | 0.704 | 1.03 | 0.973 | 0.884 | 0.899 | 0.882
NCI-H2126 | 1.05 | 1.17 | 1.09 | 1.05 | 1.04 | 0.618 | 0.889 | 0.65 | 0.302 | 0.65 | 0.652 | 0.681 | 0.67 | 0.586 | 0.978 | 0.921 | 0.806 | 0.903 | 0.875
ABC-1 | 0.894 | 0.867 | 1.2 | 0.727 | 0.957 |  | 0.718 | 0.308 | 0.422 | 0.664 | 0.443 | 0.638 | 0.553 | 0.501 | 1.07 | 0.746 | 0.838 | 0.939 | 0.898
NCI-H1355 | 0.711 | 0.724 | 0.801 | 0.697 | 0.771 |  | 0.68 | 0.368 | 0.257 | 0.674 | 0.868 | 0.781 | 0.761 | 0.739 | 0.759 | 0.759 | 0.632 | 0.756 | 0.696
A-427 | 0.726 | 0.761 | 0.765 | 0.851 | 0.674 | 0.712 | 0.642 | 0.315 | 0.18 | 0.823 | 0.656 | 0.693 | 0.718 | 0.643 | 0.778 | 0.722 | 0.623 | 0.818 | 0.676
